Source: PubChem BioAssay AID2060502 (Molecular Pharmacology Branch, DTP, NCI, 2025)
Blank lines part the entries; values can stand above or below the compound they belong to.

System: 885724-159-R-J1-PDC complex spheroid viability
Test: Anticancer human tumor 885724-159-R-J1-PDC patient-derived pancreatic adenocarcinoma cell line growth inhibition [GQUAD]
Conditions: for IC50: curve of first compound; for viability, T/C: stronger effect = lower value
How it was run: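 Tumor cells were grown as complex spheroids with HUVEC endothelial cells and mesenchymal stem cells as stroma. G-quadruplex stabilizers were combined with targeted agents over half-log dilutions from near the clinical Cmax, or from 10 microM.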

[1] = second compound 0.0316 µM, first compound 0.0316 µM
[2] = second compound 0.0316 µM, first compound 0.1 µM
[3] = second compound 0.0316 µM, first compound 0.316 µM
[4] = second compound 0.0316 µM, first compound 1 µM
[5] = second compound 0.0316 µM, first compound 3.16 µM
[6] = second compound 0.0316 µM, first compound 10 µM
[7] = second compound 0.1 µM, first compound 0.0316 µM
[8] = second compound 0.1 µM, first compound 0.1 µM
[9] = second compound 0.1 µM, first compound 0.316 µM
[10] = second compound 0.1 µM, first compound 1 µM
[11] = second compound 0.1 µM, first compound 3.16 µM
[12] = second compound 0.1 µM, first compound 10 µM
[13] = second compound 0.316 µM, first compound 0.0316 µM
[14] = second compound 0.316 µM, first compound 0.1 µM
[15] = second compound 0.316 µM, first compound 0.316 µM
[16] = second compound 0.316 µM, first compound 1 µM
[17] = second compound 0.316 µM, first compound 3.16 µM
[18] = second compound 0.316 µM, first compound 10 µM
[19] = second compound 1 µM, first compound 0.0316 µM
[20] = second compound 1 µM, first compound 0.1 µM
[21] = second compound 1 µM, first compound 0.316 µM
[22] = second compound 1 µM, first compound 1 µM
[23] = second compound 1 µM, first compound 3.16 µM
[24] = second compound 1 µM, first compound 10 µM
[25] = second compound 3.16 µM, first compound 0.0316 µM
[26] = second compound 3.16 µM, first compound 0.1 µM
[27] = second compound 3.16 µM, first compound 0.316 µM
[28] = second compound 3.16 µM, first compound 1 µM
[29] = second compound 3.16 µM, first compound 3.16 µM
[30] = second compound 3.16 µM, first compound 10 µM
[31] = second compound 10 µM, first compound 0.0316 µM
[32] = second compound 10 µM, first compound 0.1 µM
[33] = second compound 10 µM, first compound 0.316 µM
[34] = second compound 10 µM, first compound 1 µM
[35] = second compound 10 µM, first compound 3.16 µM
[36] = second compound 10 µM, first compound 10 µM
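Further: spheroids exposed to agents for seven days before readout.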
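Wherever viability, T/C is given: percent of vehicle control viability where 100% = DMSO wells.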

IC50 (second compound 0.0316 µM): 2.66 µM
IC50 (second compound 0.1 µM): 5.19 µM
IC50 (second compound 0.316 µM): 4.11 µM
IC50 (second compound 1 µM): 1.59 µM
IC50 (second compound 3.16 µM): 0.609 µM
IC50 (second compound 10 µM): 0.728 µM
SMILES: CC1COCCN1c1cc(-c2ccnn2C)c2ccnc(-c3ccn[nH]3)c2n1 (stereo not drawn) + Cc1cnc(CNC(=O)c2c(=O)c3ccc(N4CCCN(C)CC4)nc3n3c2sc2ccccc23)cn1
viability, T/C [1]: 86.4%
viability, T/C [2]: 81.4%
viability, T/C [3]: 76.3%
viability, T/C [4]: 54.9%
viability, T/C [5]: 52.8%
viability, T/C [6]: 38.5%
viability, T/C [7]: 99.4%
viability, T/C [8]: 81.1%
viability, T/C [9]: 82.4%
viability, T/C [10]: 73.5%
viability, T/C [11]: 54%
viability, T/C [12]: 41.3%
viability, T/C [13]: 94.2%
viability, T/C [14]: 90.3%
viability, T/C [15]: 72.9%
viability, T/C [16]: 62.2%
viability, T/C [17]: 55.2%
viability, T/C [18]: 41.3%
viability, T/C [19]: 82.4%
viability, T/C [20]: 74.1%
viability, T/C [21]: 69.3%
viability, T/C [22]: 57.2%
viability, T/C [23]: 39.8%
viability, T/C [24]: 33.9%
viability, T/C [25]: 64.8%
viability, T/C [26]: 65.7%
viability, T/C [27]: 58.4%
viability, T/C [28]: 42.7%
viability, T/C [29]: 37.3%
viability, T/C [30]: 30.9%
viability, T/C [31]: 65.1%
viability, T/C [32]: 61.6%
viability, T/C [33]: 57.3%
viability, T/C [34]: 48.2%
viability, T/C [35]: 30.6%
viability, T/C [36]: 25.2%

SMILES: CC(C)n1c(=O)n(C)c2cnc3cc(F)c(-c4ccc(OCCCN5CCCCC5)nc4)cc3c21 + Cc1[nH]c2ccc(F)cc2c1-c1nc2c3cccnc3c3ncccc3c2[nH]1
IC50 (second compound 0.0316 µM): > 10 µM
IC50 (second compound 0.1 µM): > 10 µM
IC50 (second compound 0.316 µM): > 10 µM
IC50 (second compound 1 µM): > 10 µM
IC50 (second compound 3.16 µM): 0.133 µM
IC50 (second compound 10 µM): > 10 µM
viability, T/C [1]: 107%
viability, T/C [2]: 95.2%
viability, T/C [3]: 98.2%
viability, T/C [4]: 92.9%
viability, T/C [5]: 84.6%
viability, T/C [6]: 83.2%
viability, T/C [7]: 100%
viability, T/C [8]: 99.2%
viability, T/C [9]: 100%
viability, T/C [10]: 91.3%
viability, T/C [11]: 94.5%
viability, T/C [12]: 78.9%
viability, T/C [13]: 93.4%
viability, T/C [14]: 102%
viability, T/C [15]: 92.5%
viability, T/C [16]: 79.8%
viability, T/C [17]: 81.6%
viability, T/C [18]: 74.2%
viability, T/C [19]: 74.3%
viability, T/C [20]: 69.2%
viability, T/C [21]: 75%
viability, T/C [22]: 70%
viability, T/C [23]: 68.3%
viability, T/C [24]: 59.5%
viability, T/C [25]: 54.7%
viability, T/C [26]: 43.4%
viability, T/C [27]: 53.8%
viability, T/C [28]: 42.9%
viability, T/C [29]: 38.5%
viability, T/C [30]: 25.3%
viability, T/C [31]: 69.9%
viability, T/C [32]: 71.6%
viability, T/C [33]: 79.8%
viability, T/C [34]: 76.1%
viability, T/C [35]: 72.4%
viability, T/C [36]: 63.2%

SMILES: CCCS(=O)(=O)Nc1ccc(F)c(C(=O)c2c[nH]c3ncc(-c4ccc(Cl)cc4)cc23)c1F + CN(C)c1ccc(Nc2c3ccc(NC(=O)CCN4CCCC4)cc3nc3cc(NC(=O)CCN4CCCC4)ccc23)cc1
IC50 (second compound 0.0316 µM): > 10 µM
IC50 (second compound 0.1 µM): > 10 µM
IC50 (second compound 0.316 µM): > 10 µM
IC50 (second compound 1 µM): > 10 µM
IC50 (second compound 3.16 µM): 9.74 µM
IC50 (second compound 10 µM): 5.73 µM
viability, T/C [1]: 112%
viability, T/C [2]: 114%
viability, T/C [3]: 116%
viability, T/C [4]: 130%
viability, T/C [5]: 139%
viability, T/C [6]: 84.7%
viability, T/C [7]: 99.8%
viability, T/C [8]: 98.1%
viability, T/C [9]: 121%
viability, T/C [10]: 129%
viability, T/C [11]: 133%
viability, T/C [12]: 65.5%
viability, T/C [13]: 97%
viability, T/C [14]: 99.3%
viability, T/C [15]: 108%
viability, T/C [16]: 107%
viability, T/C [17]: 146%
viability, T/C [18]: 66%
viability, T/C [19]: 80.4%
viability, T/C [20]: 82%
viability, T/C [21]: 109%
viability, T/C [22]: 118%
viability, T/C [23]: 134%
viability, T/C [24]: 64.4%
viability, T/C [25]: 81%
viability, T/C [26]: 74.2%
viability, T/C [27]: 101%
viability, T/C [28]: 101%
viability, T/C [29]: 114%
viability, T/C [30]: 48.9%
viability, T/C [31]: 80.2%
viability, T/C [32]: 73.1%
viability, T/C [33]: 82.1%
viability, T/C [34]: 99.5%
viability, T/C [35]: 93.9%
viability, T/C [36]: 16.5%

SMILES: COc1ccc([C@@H](O)c2cc(-c3ncnc4cc(N5CCOCC5)ccc34)c(F)cc2Cl)nn1 + Cc1[nH]c2ccc(F)cc2c1-c1nc2c3cccnc3c3ncccc3c2[nH]1
IC50 (second compound 0.0316 µM): 6.88 µM
IC50 (second compound 0.1 µM): 5.43 µM
IC50 (second compound 0.316 µM): 5.28 µM
IC50 (second compound 1 µM): 3.28 µM
IC50 (second compound 3.16 µM): < 0.0316 µM
IC50 (second compound 10 µM): 3.51 µM
viability, T/C [1]: 101%
viability, T/C [2]: 110%
viability, T/C [3]: 108%
viability, T/C [4]: 94%
viability, T/C [5]: 68.5%
viability, T/C [6]: 41.2%
viability, T/C [7]: 99%
viability, T/C [8]: 97%
viability, T/C [9]: 90.5%
viability, T/C [10]: 82.3%
viability, T/C [11]: 57.7%
viability, T/C [12]: 40.5%
viability, T/C [13]: 92%
viability, T/C [14]: 97.8%
viability, T/C [15]: 83.6%
viability, T/C [16]: 65.7%
viability, T/C [17]: 66.5%
viability, T/C [18]: 36.2%
viability, T/C [19]: 76.1%
viability, T/C [20]: 71.1%
viability, T/C [21]: 82.8%
viability, T/C [22]: 68.5%
viability, T/C [23]: 51%
viability, T/C [24]: 34.3%
viability, T/C [25]: 47.5%
viability, T/C [26]: 46.3%
viability, T/C [27]: 51.2%
viability, T/C [28]: 39.5%
viability, T/C [29]: 33.7%
viability, T/C [30]: 28.3%
viability, T/C [31]: 72.4%
viability, T/C [32]: 75.6%
viability, T/C [33]: 62.6%
viability, T/C [34]: 63.4%
viability, T/C [35]: 52.9%
viability, T/C [36]: 32.8%
